B1: BMP4: Recombinant BMP4 protein obtained from Stemgent (protein, UniProt P12644 293-408, looked up)
Bone morphogenetic protein 4: SPKHHSQRARKKNKNCRRHSLYVDFSDVGWNDWIVAPPGYQAFYCHGDCPFPLADHLNSTNHAIVQTLVNSVNSSIPKACCVPTELSAISMLYLDEYDKVVLKNYQEMVVEGCGCR

Experiments:
HMLE^24+ cells [1] = assay: RT-PCR / immunoblot of EMT markers and EMT-TFs in HMLE^24+ cells; format: cell-based, human
Description: (§1) FIGS. 5A-5H. Concomitant stimulation of Wnt and TGF-beta pathways allows HMLE^24+ cells to enter into a mesenchymal and SC-like state. (FIG. 5A) RT-PCR: N-Cadherin, Zeb1 and Zeb2, L32 was loading control, n=3. Prior RNA isolation, HMLE^24+-shGFP or -shSFRP1 (stable knockdown of SFRP1, FIG. 12A) cells were treated for 3 days with daily doses of indicated factors: anti-DKK1 antibody (10 μg/ml), anti-E-Cadherin antibody (1 μg/ml), TGF-beta 1 (5 ng/ml), Wnt5a (250 ng/ml), (FIG. 5B) Brightfield microscopy: images of control, TGF-beta- and iEMT-cocktail treated HMLE^24+ cells after 14 days of treatment as indicated (see also FIG. 12D). (FIG. 5C) RT-PCR: Zeb1, Zeb2, E-Cadherin and N-Cadherin, L32 was loading control, n=3. After 14 day treatment, cells were expanded in absence of further stimulation for 4 passages. […] (FIG. 5G) Lung metastasis: cells expanded for 8 passages after cessation of treatment as described in (C) were transformed with RAS; 1.0×10^5 cells were injected into the mammary fat pads of mice; GFP-labeled metastases on the surface of the lungs were quantified; *control vs. all other groups, p<0.05, n=5 mice/group. […]
Immunoblots. Protein was extracted with RIPA lysis buffer and concentration determined by the Lowry assay (Biorad). […]

HMLE^24+ cells [2] = assay: Mammosphere assay, HMLE^24+ cells after 14 day treatment; format: cell-based, human
Description: as §1, with “passages. Shown are PBS-treated control HMLE^24+-shGFP and HMLE^24+-shSFRP1 cells, two HMLE^24+-shGFP cultures treated with TGF-beta 1 (TGF-β-a and -b), two HMLE^24+-shSFRP1 cultures treated with the iEMT-cocktail (iEMT-a and -b).” for “passages.”

HMLE^24+ cells [3] = assay: Flow cytometry of CD44/CD24, HMLE^24+ cells after 14 day treatment; format: cell-based, human; conditions: control 0.2%
Description: as §1
Fluorescent activated cell sorting (FACS) and flow cytometry. […] Samples were sorted on a BD FACSAria SORP and analyzed on a BD LSRII using BD FACSDiva Software (BD Biosciences).

[4] = system: RAS-transformed HMLE cells; assay: Lung metastasis of RAS-transformed treated HMLE cells from mammary fat pads; format: in vivo; conditions: cells implanted into mammary fat pads of mice
Description: as §1
Animal studies. […] Lung surface metastases were counted using a fluorescent microscope within 3 hr of specimen isolation.

luminal MECs = assay: Growth curve of luminal cells in monolayers; format: cell-based, human; conditions: luminal cultures
Description: FIGS. 14A-14D. Modulation of migratory and self-renewal abilities in basal and luminal MECs. (FIG. 14A) Growth curve: basal cells treated every 48 hrs with indicated factors, TGF-beta-type 1 receptor inhibitors A83-01 and SB431542 (10 μM), SFRP1 (1 μg/ml); cells were counted at indicated time points, n=2. (FIG. 14B) Growth curve: luminal cells treated every 48 hrs with indicated factors, TGF-beta 1 (5 ng/ml), Wnt5a (250 ng/ml), anti-DKK1-(10 μg/ml) and anti-E-Cadherin antibodies (1 μg/ml) or a combination of all factors (iEMT-II); cells were counted at indicated time points, n=2, (FIG. 14C) Microscopy images of basal cells treated as described in (A), at 4 days/before first passage. (FIG. 14D) Microscopy images of luminal cells treated as described in (B), at 4 days/before first passage.
Primary mammary epithelial cell culture. Single-cell suspensions of primary human mammary epithelial cells (MECs) were generated from reduction mammoplasties of pre-menopausal women as previously described (Stingl et al., 2001), Data from three donors are included in this study. Primary MECs were cultured on collagen I-coated plates (Millipore) in MEGM medium (Lonza) supplemented with 1% Fetal Bovine Serum in a humidified 4% O2, 5% CO2, atmosphere.

HTwist and MSP cells = assay: Mammosphere assay, HTwist and MSP cells; format: cell-based, human
Description: FIGS. 10A-10E. […] (FIG. 10E) Mammosphere Assay: HTwist and MSP were treated daily during mammosphere formation (5 days) with BMP4 (0.5 μg/ml), SB431542 (10 μM) or a combination of both, n(mammospheres)/1000 cells, n=6.
Mammosphere and tumorsphere assay. Assays were performed as previously described with modifications (Dontu et al., 2003): 1000 cells/well were seeded in 96-well ultra-low adhesion plates (Corning) in MEGM medium containing 1.3% methylcellulose (Stem Cell Technologies) supplemented with 20 ng/ml EGF, 10 ng/ml bFGF (both Sigma) and B27 (Gibco). Primary spheres were dissociated by trypsinization and replated for secondary sphere formation after a period of 5-7 days.

Molecule | induction of N-Cadherin, Zeb1 or Zeb2 (HMLE^24+ cells [1]; 3 days treatment) | E-/N-Cadherin expression (HMLE^24+ cells [1]; 14 day treatment, then expanded without stimulation) | increase in mammosphere formation vs untreated control cells (HMLE^24+ cells [2]) [fold] | proportion of CD44high/CD24low-negative cells (HMLE^24+ cells [3]) [%] | lung metastatic foci of RAS-transformed treated cells [4] | proliferation in monolayers (luminal MECs) | reduction of primary mammosphere formation (HTwist and MSP cells; added daily for 5 days (FIG. 3D)) [%] | reduction of secondary sphere formation (HTwist and MSP cells; both cell lines, treated during primary sphere formation only) [%]
TGF-beta 1: recombinant TGF-beta 1 protein, used at 5 ng/ml | did not result in a significant induction | marginal upregulation of N-Cadherin | 10 | 1.5 | only weakly metastatic | significantly reduced |  | 
B1 |  |  |  |  |  |  | 60 | 90

Reference: patent US9308238B2, “Compositions and methods for modulating EMT and uses thereof” (Whitehead Institute for Biomedical Research, priority 2010, dated 2016)
